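Protocol summary: plate cells (96-well), add compound at 5 concentrations, incubate 48 h, interpolate endpoints linearly. Here, GI50 denotes the concentration required for 50% inhibition of growth. TGI: concentration producing complete growth inhibition.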
Experiments:
Test in all cases: NCI tumour cell line growth inhibition, 48 h
[1] = tested on: NCI-H460 lung
[2] = tested on: UACC-62 melanoma
[3] = tested on: HS 578T breast
[4] = tested on: SK-MEL-2 melanoma
[5] = tested on: RPMI-8226 leukemia
[6] = tested on: UO-31 renal
[7] = tested on: PC-3 prostate
[8] = tested on: A549 NSCLC
[9] = tested on: DU-145 prostate
[10] = tested on: MOLT-4 leukemia
[11] = tested on: MDA-MB-231 breast
[12] = tested on: BT-549 breast
[13] = tested on: OVCAR-3 ovarian
[14] = tested on: KM12 colon
[15] = tested on: HCT-15 colon
[16] = tested on: M14 melanoma
[17] = tested on: SF-539 CNS
[18] = tested on: T-47D breast
[19] = tested on: CCRF-CEM leukemia
[20] = tested on: HCT-116 colon
[21] = tested on: NCI/ADR-RES ovarian
[22] = tested on: MDA-MB-435
[23] = tested on: SF-295 CNS
[24] = tested on: SW-620 colon
[25] = tested on: HCC-2998 colon
[26] = tested on: EKVX NSCLC
[27] = tested on: SK-MEL-5 melanoma
[28] = tested on: 786-0 renal
[29] = tested on: HT29 colon
[30] = tested on: SN12C renal
[31] = tested on: HL-60(TB) leukemia
[32] = tested on: OVCAR-5 ovarian
[33] = tested on: SNB-75 CNS
[34] = tested on: LOX IMVI melanoma
[35] = tested on: HOP-62 NSCLC
[36] = tested on: IGROV1 ovarian
[37] = tested on: ACHN renal
[38] = tested on: UACC-257 melanoma
[39] = tested on: OVCAR-8 ovarian
[40] = tested on: MALME-3M melanoma
[41] = tested on: SNB-19 CNS
[42] = tested on: A498 renal
[43] = tested on: SF-268 CNS
[44] = tested on: COLO 205 colon
[45] = tested on: NCI-H226 lung
[46] = tested on: MCF7 breast
[47] = tested on: SK-MEL-28 melanoma
[48] = tested on: U251 CNS
[49] = tested on: SK-OV-3 ovarian
[50] = tested on: OVCAR-4 ovarian
[51] = tested on: CAKI-1 renal
[52] = tested on: RXF 393 renal
[53] = tested on: NCI-H23 lung
[54] = tested on: HOP-92 NSCLC
[55] = tested on: SR leukemia
[56] = tested on: K-562 leukemia
[57] = tested on: TK-10 renal
[58] = tested on: NCI-H522 lung

With `CSc1ccc(/C(=N/N=C(N)N)c2ccc(Cl)cc2)cc1` the GI50 [1] was 376 nM, the TGI [1] was 1510 nM and the GI50 [2] was 707 nM. The TGI [2] was 2420 nM, the GI50 [3] was 1280 nM and the TGI [3] was 14900 nM. The GI50 [4] was 473 nM, the TGI [4] was 3840 nM and the GI50 [5] was 456 nM. For the same molecule, the TGI [5] was 3130 nM, the GI50 [6] was 1000 nM and the TGI [6] was 4030 nM. The GI50 [7] was 447 nM, the TGI [7] was 5220 nM and the GI50 [8] was 399 nM. For the same molecule, the TGI [8] was 4810 nM, the GI50 [9] was 468 nM and the TGI [9] was 4240 nM. The GI50 [10] was 422 nM, the TGI [10] was 3520 nM and the GI50 [11] was 499 nM. It also gave a TGI [11] of 3180 nM, a GI50 [12] of 1700 nM and a TGI [12] of 3350 nM. For the same molecule, the GI50 [13] was 500 nM, the TGI [13] was 4130 nM and the GI50 [14] was 416 nM. The TGI [14] was 4010 nM, the GI50 [15] was 340 nM and the TGI [15] was 2140 nM. It also gave a GI50 [16] of 362 nM, a TGI [16] of 1270 nM and a GI50 [17] of 291 nM. The TGI [17] was 935 nM, the GI50 [18] was 558 nM and the TGI [18] was 4940 nM. For the same molecule, the GI50 [19] was 375 nM, the TGI [19] was 5990 nM and the GI50 [20] was 364 nM. The TGI [20] was 1270 nM, the GI50 [21] was 748 nM and the TGI [21] was 2870 nM. For the same molecule, the GI50 [22] was 242 nM, the TGI [22] was 593 nM and the GI50 [23] was 368 nM. For the same molecule, the TGI [23] was 1570 nM, the GI50 [24] was 480 nM and the TGI [24] was 1960 nM. It also gave a GI50 [25] of 333 nM, a TGI [25] of 1160 nM and a GI50 [26] of 1030 nM. The TGI [26] was 14700 nM, the GI50 [27] was 949 nM and the TGI [27] was 2160 nM. It also gave a GI50 [28] of 754 nM, a TGI [28] of 2350 nM and a GI50 [29] of 332 nM. It also gave a TGI [29] of 1130 nM, a GI50 [30] of 500 nM and a TGI [30] of 2210 nM. For the same molecule, the GI50 [31] was 268 nM, the TGI [31] was 784 nM and the GI50 [32] was 496 nM. For the same molecule, the TGI [32] was 7270 nM, the GI50 [33] was 380 nM and the TGI [33] was 4140 nM. For the same molecule, the GI50 [34] was 397 nM, the TGI [34] was 1520 nM and the GI50 [35] was 569 nM. The TGI [35] was 5660 nM, the GI50 [36] was 860 nM and the TGI [36] was 5860 nM. The GI50 [37] was 744 nM, the TGI [37] was 4460 nM and the GI50 [38] was 891 nM. The TGI [38] was 2520 nM, the GI50 [39] was 607 nM and the TGI [39] was 3870 nM. For the same molecule, the GI50 [40] was 869 nM, the TGI [40] was 2410 nM and the GI50 [41] was 696 nM. The TGI [41] was 14200 nM, the GI50 [42] was 1810 nM and the TGI [42] was 4980 nM. For the same molecule, the GI50 [43] was 1060 nM, the TGI [43] was 6630 nM and the GI50 [44] was 298 nM. The TGI [44] was 864 nM, the GI50 [45] was 1180 nM and the TGI [45] was 6400 nM. For the same molecule, the GI50 [46] was 355 nM, the TGI [46] was 2060 nM and the GI50 [47] was 957 nM. It also gave a TGI [47] of 2350 nM, a GI50 [48] of 382 nM and a TGI [48] of 2170 nM. The GI50 [49] was 593 nM, the TGI [49] was 14300 nM and the GI50 [50] was 1550 nM. The TGI [50] was 13200 nM, the GI50 [51] was 536 nM and the TGI [51] was 2980 nM. For the same molecule, the GI50 [52] was 509 nM, the TGI [52] was 2140 nM and the GI50 [53] was 617 nM. For the same molecule, the TGI [53] was 12000 nM, the GI50 [54] was 663 nM and the TGI [54] was 5510 nM. The GI50 [55] was 349 nM, the TGI [55] was 2300 nM and the GI50 [56] was 342 nM. For the same molecule, the TGI [56] was 1700 nM, the GI50 [57] was 2830 nM and the TGI [57] was 12600 nM. The GI50 [58] was 213 nM and the TGI [58] was 516 nM.
